From US12264156B2, “Compounds and pharmaceutical compositions thereof for the treatment of diseases” (GALAPAGOS NV, priority 2018, dated 2025) come the findings set out here.

pEC50, pIC50: −log10 of the molar value.

In one assay the target is T1, SIK1 (Homo sapiens, UniProt P57059).
T1 construct: purchased Carna Biosciences 02-131
In words: ADP-Glo kinase assay, SIK1. The conditions noted are these: ADP-Glo SIK kinase assay. In kind it is biochemical. The method in brief: (§1)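 Wells with 1% DMSO or 10 μM staurosporine (final) define the control window. The kinase reaction with substrate and ATP runs 120 min at RT, followed by ADP-Glo detection: ATP depletion (40 min) and ADP-derived luminescence (30 min).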

Another assay has as its target T2, SIK2 (Homo sapiens, UniProt Q9H0K1).
T2 construct: purchased ThermoFisher Scientific PV4792
Briefly: ADP-Glo kinase assay, SIK2. The format is biochemical. The note with it: ADP-Glo SIK kinase assay. The method in brief: as §1
A general note: In ADP-Glo the light output rises with the ADP produced.

A further assay addresses T3, SIK3 (Homo sapiens, UniProt Q9Y2K2).
T3 construct: purchased SignalChem S12-11G-100
In words: ADP-Glo kinase assay, SIK3. In kind it is biochemical. The note with it: ADP-Glo SIK kinase assay. An outline of the steps:
as §1

Assay [1] concerns LPS-induced TNFα in monocyte-derived macrophages (MdM). Briefly: MdM assay: LPS-triggered TNFα (ELISA). The format is cell-based, human. The note with it: Homo sapiens, Macrophage, 20 h, monocyte-derived macrophages, LPS 200 ng/mL, supernatant after 20 h; read-out: TNFα EC50. Here is the method:
This assay evaluates illustrative compounds of the invention for their inhibition of LPS-induced TNFα and LPS triggered IL-10 secretion in monocyte-derived macrophages.
PBMCs are isolated from human blood samples (buffycoats). The buffy coat is aseptically transferred into a 50 mL Falcon tube, and diluted 1/2 in PBS. Falcon tubes are filled with 20 mL Lymphoprep™, on top of which 25 mL of the buffy coat is carefully added, tubes are centrifuged for 35 min at 400 g in temperature controlled centrifuge, without brake, at 25° C. PBMCs are aspirated from the white interface layer between sample and Lymphoprep™. PBMCs are washed five times in PBS.
PBMCs are centrifuged at 300×g for 10 min and resuspended at a density of 1.0*10^7 cells/80 μL Miltenyi buffer (PBS, pH 7.4, 1% FBS, 2 mM EDTA).
Starting from this point of the protocol all steps are performed on ice. 20 μL of CD14+ micro-beads are added per 1.0*10^7 cells, the tube is mixed and incubated for 15 min in the fridge at 4° C. Cell suspension volume is adjusted to total volume of 100 mL using Miltenyi buffer, mixed gently and subsequently centrifuged for 10 min at 300×g. Supernantant is discarded and cell pellet is resuspended in 12 mL of Miltenyi buffer.
Four LS columns are placed in the MACS Separator (magnet) from Miltenyi Biotec, and are prewet by rinsing with 3 mL of MACS buffer per column. Three mL of cell suspension is added onto the column (max 1*10^8 of labelled cells/column), and columns are subsequently washed 3 times with 3 mL of Miltenyi buffer.
The columns are removed from the magnets, and 5 mL of Miltenyi buffer are added to the column to flush out the CD14+ fraction by pushing the plunger into the column. The flushed fractions are collected in a fresh 50 mL Falcon and volume is adjusted to 30 mL using Miltenyi buffer, cells are centrifuged for 10 min at 300×g. The obtained cell pellet is resuspended in 10 mL RPMI w/o FBS, and cell density is determined using a hematologic analyser (Sysmex XS-500i).
On day 10, MdMs are triggered and compound is added.
A compound dilution plate is made in 100% DMSO by 3-fold dilution of 10 mM stock solution. An intermediate dilution plate (10× final concentration) is made by diluting the compound dilution plate 50-fold in RPMI medium.
Medium is carefully removed from cell plates using multichannel pipette, and replaced by 80 μL fresh medium. 10 μL of the 10× final concentration compound is added to the cells and incubated for 1 hour at 37° C. before addition of trigger. No trigger conditions/trigger conditions are spiked with equal final DMSO concentrations of 0.2% DMSO. 10 μL of 10×LPS (final conc. 200 ng/mL) solution are added to all wells except for the ‘no trigger wells’ where 10 μL medium is added. Supernatant is collected after 2 h (IL-10 determination) and after 20 h (TNFα determination) of LPS triggering.
The plate is then washed once with PBST (PBS+0.05% Tween20) and once with PBS followed by the addition of 100 μL of blocking buffer (1% Bovine Serum Albumin (BSA)−5% Sucrose) and plates are sealed and incubated for at least 4 h at RT. After washing the plate once with PBST and once with PBS, 40 μL of standard or sample are added (TNFα standard curve is prepared using a 1/2 serial dilution starting from […]; dilutions are made in dilution buffer (PBS+1% BSA)). Plates are washed twice with PBST, and once with PBS, after which 35 μL of the detection antibody is added (final concentration 0.25 μg/mL diluted in dilution buffer) and plates are incubated for at least 2 h at RT. Plates are washed twice with PBST, and once with PBS, where after 35 μL of Strep-HRP conjugate (0.5 μg/mL final concentration diluted in dilution buffer) is added. Plates are incubated in the dark, at RT for at least 45 min but no longer than 1 hour. Plates are washed twice with PBST, and once with PBS.
A general note: An ELISA detects its analyte on a solid surface through an enzyme-linked reagent.

T2 sequence (Q9H0K1 whole entry): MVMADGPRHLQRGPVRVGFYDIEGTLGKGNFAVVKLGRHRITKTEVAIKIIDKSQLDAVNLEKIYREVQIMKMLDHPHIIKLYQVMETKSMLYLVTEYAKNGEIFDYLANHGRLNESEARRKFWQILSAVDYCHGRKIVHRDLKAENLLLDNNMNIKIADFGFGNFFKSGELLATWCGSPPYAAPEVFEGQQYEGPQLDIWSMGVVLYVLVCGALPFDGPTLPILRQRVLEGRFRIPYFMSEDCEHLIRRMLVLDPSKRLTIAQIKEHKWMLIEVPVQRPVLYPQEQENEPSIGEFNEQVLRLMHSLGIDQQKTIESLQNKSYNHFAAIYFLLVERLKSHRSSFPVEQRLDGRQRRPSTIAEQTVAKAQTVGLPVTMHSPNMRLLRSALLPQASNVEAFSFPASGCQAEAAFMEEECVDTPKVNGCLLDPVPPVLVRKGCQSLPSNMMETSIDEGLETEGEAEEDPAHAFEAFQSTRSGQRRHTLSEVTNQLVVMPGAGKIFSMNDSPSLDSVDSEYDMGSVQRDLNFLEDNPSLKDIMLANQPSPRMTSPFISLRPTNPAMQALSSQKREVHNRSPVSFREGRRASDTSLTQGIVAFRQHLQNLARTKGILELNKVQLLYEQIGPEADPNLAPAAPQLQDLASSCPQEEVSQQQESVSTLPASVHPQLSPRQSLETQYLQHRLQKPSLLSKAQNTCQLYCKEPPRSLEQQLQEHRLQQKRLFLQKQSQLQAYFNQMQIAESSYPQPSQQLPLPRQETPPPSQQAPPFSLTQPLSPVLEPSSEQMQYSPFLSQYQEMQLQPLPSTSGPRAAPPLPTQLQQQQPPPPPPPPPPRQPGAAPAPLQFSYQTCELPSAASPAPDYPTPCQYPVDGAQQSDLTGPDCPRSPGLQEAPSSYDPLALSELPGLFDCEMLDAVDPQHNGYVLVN
T1 sequence (P57059 whole entry): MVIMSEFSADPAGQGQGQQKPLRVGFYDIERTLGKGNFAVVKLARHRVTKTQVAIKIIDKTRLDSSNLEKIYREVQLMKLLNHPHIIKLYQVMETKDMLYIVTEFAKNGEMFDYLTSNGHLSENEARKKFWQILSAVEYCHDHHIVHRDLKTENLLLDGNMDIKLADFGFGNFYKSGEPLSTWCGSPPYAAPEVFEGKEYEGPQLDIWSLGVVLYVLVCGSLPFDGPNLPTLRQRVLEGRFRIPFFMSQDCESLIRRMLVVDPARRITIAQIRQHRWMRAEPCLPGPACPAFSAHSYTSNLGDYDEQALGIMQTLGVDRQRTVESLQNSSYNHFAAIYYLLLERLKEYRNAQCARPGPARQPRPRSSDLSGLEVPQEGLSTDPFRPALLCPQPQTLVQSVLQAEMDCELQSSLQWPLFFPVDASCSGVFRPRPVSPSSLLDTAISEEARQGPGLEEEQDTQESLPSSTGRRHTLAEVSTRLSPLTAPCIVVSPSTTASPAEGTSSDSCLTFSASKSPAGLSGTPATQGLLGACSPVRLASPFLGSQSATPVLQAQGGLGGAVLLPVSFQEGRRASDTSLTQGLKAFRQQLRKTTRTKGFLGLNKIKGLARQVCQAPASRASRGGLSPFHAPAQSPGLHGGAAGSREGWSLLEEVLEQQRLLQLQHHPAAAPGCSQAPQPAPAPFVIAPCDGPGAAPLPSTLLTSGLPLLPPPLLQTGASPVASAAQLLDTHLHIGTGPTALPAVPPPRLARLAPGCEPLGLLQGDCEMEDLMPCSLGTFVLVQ
T3 sequence (Q9Y2K2 whole entry): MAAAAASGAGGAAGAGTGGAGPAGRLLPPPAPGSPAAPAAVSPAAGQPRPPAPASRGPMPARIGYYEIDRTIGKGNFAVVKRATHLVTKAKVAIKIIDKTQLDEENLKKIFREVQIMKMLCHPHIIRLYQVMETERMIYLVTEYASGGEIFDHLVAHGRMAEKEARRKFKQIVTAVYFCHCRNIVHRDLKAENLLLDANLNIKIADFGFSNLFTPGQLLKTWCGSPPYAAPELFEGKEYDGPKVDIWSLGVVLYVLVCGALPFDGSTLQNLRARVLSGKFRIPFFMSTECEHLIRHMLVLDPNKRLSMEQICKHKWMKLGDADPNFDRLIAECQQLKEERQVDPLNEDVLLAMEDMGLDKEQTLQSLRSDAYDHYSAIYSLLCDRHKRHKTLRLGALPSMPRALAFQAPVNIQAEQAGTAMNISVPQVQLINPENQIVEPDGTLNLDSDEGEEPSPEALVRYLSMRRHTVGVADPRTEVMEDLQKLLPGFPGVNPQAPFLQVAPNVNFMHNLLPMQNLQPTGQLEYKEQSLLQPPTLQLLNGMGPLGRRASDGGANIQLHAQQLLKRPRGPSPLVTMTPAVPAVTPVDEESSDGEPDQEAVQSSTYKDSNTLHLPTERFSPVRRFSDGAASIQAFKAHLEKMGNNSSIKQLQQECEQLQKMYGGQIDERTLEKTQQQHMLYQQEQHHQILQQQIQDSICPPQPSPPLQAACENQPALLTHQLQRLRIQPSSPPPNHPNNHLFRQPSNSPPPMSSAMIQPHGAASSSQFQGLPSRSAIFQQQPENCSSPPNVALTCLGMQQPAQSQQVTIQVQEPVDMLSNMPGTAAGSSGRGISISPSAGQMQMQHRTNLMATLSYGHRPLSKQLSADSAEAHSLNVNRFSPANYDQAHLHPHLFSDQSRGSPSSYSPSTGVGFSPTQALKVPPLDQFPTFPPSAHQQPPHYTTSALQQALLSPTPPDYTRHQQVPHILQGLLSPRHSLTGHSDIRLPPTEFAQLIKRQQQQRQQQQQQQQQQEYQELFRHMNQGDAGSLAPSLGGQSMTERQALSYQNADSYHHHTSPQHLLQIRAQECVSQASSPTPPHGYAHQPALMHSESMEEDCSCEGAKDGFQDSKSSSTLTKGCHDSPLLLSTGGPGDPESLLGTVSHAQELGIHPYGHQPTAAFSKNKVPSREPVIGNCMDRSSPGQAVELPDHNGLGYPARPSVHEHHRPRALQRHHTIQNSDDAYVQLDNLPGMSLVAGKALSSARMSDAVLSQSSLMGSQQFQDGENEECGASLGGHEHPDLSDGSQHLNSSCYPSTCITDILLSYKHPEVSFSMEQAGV

`COc1cc(-c2cnc3cc(OCc4ccnn4C)ccn23)cc2c1C(=O)N(CC(F)(F)F)CC2` [compound 84, 8-methoxy-6-[7-[(2-methylpyrazol-3-yl)methoxy]imidazo[1,2-a]pyridin-3-yl]-2-(2,2,2-trifluoroethyl)-3,4-dihydroisoquinolin-1-one]: the negative-log IC50 (pIC50) (usually the IC50 on a negative log10 scale, so that one unit is a factor of ten) is 6.30 to 7.00 against SIK1, 7.00 to 8.00 against SIK2 and 8.00 to 11.00 on SIK3. In addition, the pEC50 (in general, −log10 of the EC50, conventionally taken in molar units) in assay [1] is 6.00 to 7.00.
Consider `COCC1CN(CCOc2ccn3c(-c4cc(OC)c(C(=O)NC5CC5)c(OC(F)F)c4)cnc3c2)CCO1` (centres unmarked) [compound 158, N-cyclopropyl-2-(difluoromethoxy)-6-methoxy-4-[7-[2-[2-(methoxymethyl)morpholin-4-yl]ethoxy]imidazo[1,2-a]pyridin-3-yl]benzamide], for which the pIC50 is 7.00 to 8.00 against SIK1, 8.00 to 11.00 on SIK2 and 8.00 to 11.00 against SIK3. In assay [1], the pEC50 was 7.00 to 10.00.
For `COc1cc(-c2cnc3cc(OCCN4CCOCC4)ccn23)cc(OC(F)F)c1C(=O)NCC(F)(F)F` [compound 230, 2-(difluoromethoxy)-6-methoxy-4-[7-(2-morpholinoethoxy)imidazo [1,2-a]pyridin-3-yl]-N-(2,2,2-trifluoroethyl)benzamide], the pIC50 was 7.00 to 8.00 at SIK1, 8.00 to 11.00 against SIK2 and 8.00 to 11.00 at SIK3. Also, the negative logarithm of the EC50 (pEC50) in assay [1] was 6.00 to 7.00.
`COc1cc(-c2cnc3cc(OCCN(C(C)C)C(C)C)ccn23)cc(OC(F)F)c1C(=O)NC1CC1` [compound 78, N-cyclopropyl-2-(difluoromethoxy)-4-[7-[2-(diisopropylamino)ethoxy]imidazo[1,2-a]pyridin-3-yl]-6-methoxy-benzamide]: the pIC50 against SIK1 was 6.30 to 7.00; on SIK2 it was 8.00 to 11.00; against SIK3 it was 8.00 to 11.00. Also, in assay [1], the pEC50 is 6.00 to 7.00.
As for `COc1cc(-c2cnc3cc(OCC4(C)CCCCN4)ccn23)cc(OC(F)F)c1C(=O)NC1CC1` (centres unmarked) [compound 172, N-cyclopropyl-2-(difluoromethoxy)-6-methoxy-4-[7-[(2-methyl-2-piperidyl)methoxy]imidazo[1,2-a]pyridin-3-yl]benzamide], the results for the pIC50 against SIK1, on SIK2 and at SIK3 were 6.30 to 7.00, 8.00 to 11.00 and 8.00 to 11.00, respectively. Moreover, in assay [1], the negative-log EC50 (pEC50) is 5.30 to 6.00.
Turning to `COc1cc(-c2cnc3cc(OCC(C)N)ccn23)cc(OC(F)F)c1C(=O)NC1CC1` (centres unmarked) [compound 138, 4-[7-(2-aminopropoxy)imidazo [1,2-a]pyridin-3-yl]-N-cyclopropyl-2-(difluoromethoxy)-6-methoxy-benzamide], the pIC50 against SIK1 is 7.00 to 8.00; at SIK2, 8.00 to 11.00; against SIK3, 8.00 to 11.00. Moreover, the negative-log EC50 (pEC50) in assay [1] was 5.30 to 6.00.
Take `COc1cc(-c2cnc3cc(OCCN(C)C)ccn23)cc2c1C(=O)N(CC#N)CC2` [compound 67, 2-[6-[7-[2-(dimethylamino)ethoxy]imidazo[1,2-a]pyridin-3-yl]-8-methoxy-1-oxo-3,4-dihydroisoquinolin-2-yl]acetonitrile]: the pIC50 against SIK1 is under 6.30; on SIK2, 8.00 to 11.00; against SIK3, 8.00 to 11.00. The negative logarithm of the EC50 (pEC50) in assay [1] was 5.30 to 6.00.
Turning to `COc1cc(-c2cnc3cc(OC[C@@H]4CC(F)(F)CN4C)ccn23)cc(OC(F)F)c1C(=O)NC1CC1` [Cpd 189, N-cyclopropyl-2-(difluoromethoxy)-4-[7-[[(2S)-4,4-difluoro-1-methyl-pyrrolidin-2-yl]methoxy]imidazo[1,2-a]pyridin-3-yl]-6-methoxy-benzamide], the pIC50 on SIK1 is 7.00 to 8.00; on SIK2 it was 8.00 to 11.00; against SIK3, 8.00 to 11.00. Moreover, the negative logarithm of the EC50 (pEC50) in assay [1] is 6.00 to 7.00.
Take `CNc1cc(-c2cnc3cc(OCCN(C)C)ccn23)cc(OC(F)F)c1C(=O)NC1CC1` [compound 147, N-cyclopropyl-2-(difluoromethoxy)-4-[7-[2-(dimethylamino)ethoxy]imidazo[1,2-a]pyridin-3-yl]-6-(methylamino)benzamide]: the values for the negative-log IC50 (pIC50) against SIK1, against SIK2 and against SIK3 were 7.00 to 8.00, 8.00 to 11.00 and 8.00 to 11.00, respectively. The negative logarithm of the EC50 (pEC50) in assay [1] was 6.00 to 7.00.
With `COc1cc(-c2cnc3cc(OC[C@@H]4CCCCN4C)ccn23)cc(OC(F)F)c1C(=O)NC1CC1` [compound 139, N-cyclopropyl-2-(difluoromethoxy)-6-methoxy-4-[7-[[(2S)-1-methyl-2-piperidyl]methoxy]imidazo [1,2-a]pyridin-3-yl]benzamide], the pIC50 is 6.30 to 7.00 against SIK1, 8.00 to 11.00 against SIK2 and 8.00 to 11.00 against SIK3. Also, the pEC50 in assay [1] was 6.00 to 7.00.
`COc1cc(-c2cnc3cc(OCCN4CCOCC4)ccn23)cc2c1C(=O)NCC2` [Cpd 217, 8-methoxy-6-[7-(2-morpholinoethoxy)imidazo [1,2-a]pyridin-3-yl]-3,4-dihydro-2H-isoquinolin-1-one]: the values for the negative-log IC50 (pIC50) at SIK1, at SIK2 and against SIK3 were 7.00 to 8.00, 8.00 to 11.00 and 8.00 to 11.00, respectively. Besides, the pEC50 in assay [1] was 6.00 to 7.00.
Turning to `COc1cc(-c2cnc3cc(OC[C@@H]4CCCN4C)ccn23)cc(OC(F)F)c1C(=O)NC1CC1` [compound 79, N-cyclopropyl-2-(difluoromethoxy)-6-methoxy-4-[7-[[(2S)-1-methylpyrrolidin-2-yl]methoxy]imidazo[1,2-a]pyridin-3-yl]benzamide], the pIC50 was 7.00 to 8.00 against SIK1, 8.00 to 11.00 against SIK2 and 8.00 to 11.00 against SIK3. Also, the pEC50 in assay [1] is 6.00 to 7.00.
In the case of `COc1cc(-c2cnc3cc(OCC4(C)CCCN4)ccn23)cc(OC(F)F)c1C(=O)NC1CC1` (centres unmarked) [compound 168, N-cyclopropyl-2-(difluoromethoxy)-6-methoxy-4-[7-[(2-methylpyrrolidin-2-yl)methoxy]imidazo[1,2-a]pyridin-3-yl]benzamide], the pIC50 against SIK1 was 6.30 to 7.00; against SIK2 it was 8.00 to 11.00; on SIK3, 8.00 to 11.00. Further, the pEC50 in assay [1] is 6.00 to 7.00.
Regarding `COc1cc(-c2cnc3cc(OCc4nccn4C)ccn23)cc(OC(F)F)c1C(=O)NC1CC1` [compound 110, N-cyclopropyl-2-(difluoromethoxy)-6-methoxy-4-[7-[(1-methylimidazol-2-yl)methoxy]imidazo[1,2-a]pyridin-3-yl]benzamide], the negative logarithm of the IC50 (pIC50) was 6.30 to 7.00 on SIK1, 8.00 to 11.00 against SIK2 and 8.00 to 11.00 against SIK3. Also, the pEC50 in assay [1] is 6.00 to 7.00.
Consider `Cc1cc(-c2cnc3cc(OCCN4CCOCC4)ccn23)cc(OC(F)F)c1C(=O)NCC(F)(F)F` [compound 243, 2-(difluoromethoxy)-6-methyl-4-[7-(2-morpholinoethoxy)imidazo[1,2-a]pyridin-3-yl]-N-(2,2,2-trifluoroethyl)benzamide], for which the pIC50 against SIK1 was under 6.30; on SIK2 it was 7.00 to 8.00; on SIK3 it was 7.00 to 8.00.
